Experimental data: patent publication US11766409B2, “Core-shell polymer nanoparticle” (THE UNIVERSITY OF QUEENSLAND, priority 2018, dated 2023)

Test system: tumor-bearing mice
Assay: In vivo anti-tumor therapeutic effect in tumor-bearing mice
Conditions: day 25 compared to day 0 post-injection; intravenous, every 72 hours, 5 injections
Experimental: In vivo mice experiments were conducted to evaluate the anti-tumor therapeutic effects of PTX-loaded high (55K/SH-PTX; 39.6% drug loading) and low-drug loading formulations (55K/SH-PTX; 3.5% drug loading) in tumor-bearing mice. Four formulations (PBS, Free PTX, High DL NP, and Low DL NP_where DL is drug loading and NP is core-shell polymer nanoparticle) were injected intravenously every 72 hours for 5 injections in total. The body weight and tumor volume of the mice were monitored every two days. […] The weight increase was higher than the Low DL NP group (4.4% increase) and Free PTX group (2.9% increase).

CC(=O)O[C@H]1C(=O)[C@@]2(C)[C@H]([C@H](OC(=O)c3ccccc3)[C@]3(O)C[C@H](OC(=O)[C@H](O)[C@@H](NC(=O)c4ccccc4)c4ccccc4)C(C)=C1C3(C)C)[C@]1(OC(C)=O)CO[C@@H]1C[C@@H]2O [Free PTX, paclitaxel]
body weight increase: 2.9%
